Results taken from BigSolDB 2.1.

Cn1nccc1O
solubility (mole fraction)
Conditions | 278.15 K | 283.15 K | 288.15 K | 293.15 K | 298.15 K | 303.15 K | 308.15 K | 313.15 K | 318.15 K
in ethanol | 0.0822 | 0.0959 | 0.112 | 0.129 | 0.149 | 0.171 | 0.194 | 0.216 | 0.247
in ethyl acetate | 0.000394 | 0.000668 | 0.00119 | 0.00222 | 0.00348 | 0.00603 | 0.00922 | 0.0154 | 0.0245
in isobutanol | 0.1 | 0.118 | 0.138 | 0.161 | 0.183 | 0.208 | 0.242 | 0.272 | 0.308
in isopropanol | 0.079 | 0.0911 | 0.106 | 0.122 | 0.141 | 0.162 | 0.186 | 0.209 | 0.24
in methanol | 0.0905 | 0.107 | 0.126 | 0.146 | 0.172 | 0.201 | 0.234 | 0.266 | 0.308
in methyl acetate | 0.00741 | 0.00888 | 0.0109 | 0.0128 | 0.0156 | 0.0187 | 0.0217 | 0.0258 | 0.0312
in n-butanol | 0.0789 | 0.09 | 0.105 | 0.121 | 0.139 | 0.159 | 0.177 | 0.2 | 0.231
in n-butyl acetate | 0.000681 | 0.00102 | 0.00149 | 0.00216 | 0.00302 | 0.00433 | 0.00601 | 0.00846 | 0.0125
in n-pentyl acetate | 0.00428 | 0.00553 | 0.00705 | 0.0087 | 0.011 | 0.0138 | 0.0169 | 0.0201 | 0.0261
in n-propanol | 0.0801 | 0.0922 | 0.109 | 0.127 | 0.143 | 0.165 | 0.185 | 0.211 | 0.245
in n-propyl acetate | 0.000277 | 0.0005 | 0.000774 | 0.00138 | 0.00218 | 0.0032 | 0.00511 | 0.00843 | 0.0124
in sec-butanol | 0.0889 | 0.101 | 0.117 | 0.135 | 0.154 | 0.173 | 0.195 | 0.219 | 0.251
